{"source": "the supplement of paper PMC10307832", "experiment_in_all_cases": "relative viability (nuclei count vs DMSO), 5 days (fraction); higher = more cells survive", "key": {"[1]": {"test_system": "NCI-H2170", "method_in_brief": "(§1)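 Lung cancer cell lines, seeded in 1536-well plates, were treated the following day by pin tool with a single drug or with five library-drug doses (not always all listed) in √10 steps on top of a fixed anchor-drug dose. Cells were fixed and nuclei stained in one step after 5 days, and nuclei were counted. Relative viability is the nuclei count for treated wells divided by that for vehicle wells, reported as medians of duplicate plates.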"}, "[2]": {"test_system": "NCI-H1793", "method_in_brief": "as §1"}, "[3]": {"test_system": "HARA", "method_in_brief": "as §1"}, "[4]": {"test_system": "SK-MES-1", "method_in_brief": "as §1"}, "[5]": {"test_system": "CAL-12T", "method_in_brief": "as §1"}, "[6]": {"test_system": "NCI-H1915", "method_in_brief": "as §1"}, "[7]": {"test_system": "H3255", "method_in_brief": "as §1"}, "[8]": {"test_system": "NCI-H647", "method_in_brief": "as §1"}, "[9]": {"test_system": "NCI-H441", "method_in_brief": "as §1"}, "[10]": {"test_system": "NCI-H661", "method_in_brief": "as §1"}, "[11]": {"test_system": "BEN", "method_in_brief": "as §1"}, "[12]": {"test_system": "NCI-H650", "method_in_brief": "as §1"}, "[13]": {"test_system": "NCI-H322M", "method_in_brief": "as §1"}, "[14]": {"test_system": "LOU-NH91", "method_in_brief": "as §1"}, "[15]": {"test_system": "HCC-15", "method_in_brief": "as §1"}, "[16]": {"test_system": "LXF-289", "method_in_brief": "as §1"}, "[17]": {"test_system": "HCC-366", "method_in_brief": "as §1"}, "[18]": {"test_system": "LC-2-ad", "method_in_brief": "as §1"}, "[19]": {"test_system": "NCI-H2347", "method_in_brief": "as §1"}, "[20]": {"test_system": "NCI-H838", "method_in_brief": "as §1"}, "[21]": {"test_system": "NCI-H2085", "method_in_brief": "as §1"}, "[22]": {"test_system": "UMC-11", "method_in_brief": "as §1"}, "[23]": {"test_system": "NCI-H1651", "method_in_brief": "as §1"}, "[24]": {"test_system": "NCI-H1395", "method_in_brief": "as §1"}}}
{"smiles": "Nc1cccc2c1CN(C1CCC(=O)NC1=O)C2=O", "note": "(configuration not stated) [Lenalidomide] + COc1cc2c(Oc3ccc(NC(=O)C4(C(=O)Nc5ccc(F)cc5)CC4)cc3F)ccnc2cc1OCCCN1CCOCC1 [Foretinib] (partner 0.25 µM)", "values": [{"measurement": "relative viability", "setting": "[1]; first compound 0.253 µM", "value": 0.972}, {"measurement": "relative viability", "setting": "[1]; first compound 0.8 µM", "value": 1}, {"measurement": "relative viability", "setting": "[1]; first compound 2.53 µM", "value": 1.04}, {"measurement": "relative viability", "setting": "[1]; first compound 8 µM", "value": 1.02}, {"measurement": "relative viability", "setting": "[2]; first compound 0.253 µM", "value": 0.706}, {"measurement": "relative viability", "setting": "[2]; first compound 2.53 µM", "value": 1.04}, {"measurement": "relative viability", "setting": "[2]; first compound 8 µM", "value": 0.655}, {"measurement": "relative viability", "setting": "[3]; first compound 0.253 µM", "value": 0.846}, {"measurement": "relative viability", "setting": "[3]; first compound 2.53 µM", "value": 0.856}, {"measurement": "relative viability", "setting": "[3]; first compound 8 µM", "value": 0.955}, {"measurement": "relative viability", "setting": "[4]; first compound 0.253 µM", "value": 0.944}, {"measurement": "relative viability", "setting": "[4]; first compound 0.8 µM", "value": 0.991}, {"measurement": "relative viability", "setting": "[4]; first compound 2.53 µM", "value": 1.02}, {"measurement": "relative viability", "setting": "[4]; first compound 8 µM", "value": 0.844}, {"measurement": "relative viability", "setting": "[5]; first compound 0.253 µM", "value": 1.21}, {"measurement": "relative viability", "setting": "[5]; first compound 0.8 µM", "value": 1.22}, {"measurement": "relative viability", "setting": "[5]; first compound 2.53 µM", "value": 1.23}, {"measurement": "relative viability", "setting": "[5]; first compound 8 µM", "value": 1.29}, {"measurement": "relative viability", "setting": "[6]; first compound 0.253 µM", "value": 1.07}, {"measurement": "relative viability", "setting": "[6]; first compound 0.8 µM", "value": 1.03}, {"measurement": "relative viability", "setting": "[6]; first compound 2.53 µM", "value": 1.14}, {"measurement": "relative viability", "setting": "[6]; first compound 8 µM", "value": 1.14}, {"measurement": "relative viability", "setting": "[7]; first compound 0.253 µM", "value": 0.733}, {"measurement": "relative viability", "setting": "[7]; first compound 0.8 µM", "value": 0.825}, {"measurement": "relative viability", "setting": "[7]; first compound 2.53 µM", "value": 0.95}, {"measurement": "relative viability", "setting": "[7]; first compound 8 µM", "value": 0.727}, {"measurement": "relative viability", "setting": "[8]; first compound 0.253 µM", "value": 0.856}, {"measurement": "relative viability", "setting": "[8]; first compound 0.8 µM", "value": 1.12}, {"measurement": "relative viability", "setting": "[8]; first compound 2.53 µM", "value": 1.21}, {"measurement": "relative viability", "setting": "[8]; first compound 8 µM", "value": 1.11}, {"measurement": "relative viability", "setting": "[9]; first compound 0.253 µM", "value": 1}, {"measurement": "relative viability", "setting": "[9]; first compound 0.8 µM", "value": 0.722}, {"measurement": "relative viability", "setting": "[9]; first compound 2.53 µM", "value": 1.16}, {"measurement": "relative viability", "setting": "[9]; first compound 8 µM", "value": 0.795}, {"measurement": "relative viability", "setting": "[10]; first compound 0.253 µM", "value": 0.996}, {"measurement": "relative viability", "setting": "[10]; first compound 0.8 µM", "value": 0.983}, {"measurement": "relative viability", "setting": "[10]; first compound 2.53 µM", "value": 1.01}, {"measurement": "relative viability", "setting": "[10]; first compound 8 µM", "value": 0.994}, {"measurement": "relative viability", "setting": "[11]; first compound 0.253 µM", "value": 0.822}, {"measurement": "relative viability", "setting": "[11]; first compound 0.8 µM", "value": 0.583}, {"measurement": "relative viability", "setting": "[11]; first compound 2.53 µM", "value": 0.812}, {"measurement": "relative viability", "setting": "[11]; first compound 8 µM", "value": 0.409}, {"measurement": "relative viability", "setting": "[12]; first compound 0.253 µM", "value": 1.02}, {"measurement": "relative viability", "setting": "[12]; first compound 2.53 µM", "value": 1.14}, {"measurement": "relative viability", "setting": "[12]; first compound 8 µM", "value": 1.01}, {"measurement": "relative viability", "setting": "[13]; first compound 0.253 µM", "value": 0.962}, {"measurement": "relative viability", "setting": "[13]; first compound 0.8 µM", "value": 1.05}, {"measurement": "relative viability", "setting": "[13]; first compound 2.53 µM", "value": 1.11}, {"measurement": "relative viability", "setting": "[13]; first compound 8 µM", "value": 0.902}, {"measurement": "relative viability", "setting": "[14]; first compound 0.253 µM", "value": 0.97}, {"measurement": "relative viability", "setting": "[14]; first compound 0.8 µM", "value": 0.923}, {"measurement": "relative viability", "setting": "[14]; first compound 2.53 µM", "value": 0.942}, {"measurement": "relative viability", "setting": "[14]; first compound 8 µM", "value": 0.898}, {"measurement": "relative viability", "setting": "[15]; first compound 0.253 µM", "value": 1.03}, {"measurement": "relative viability", "setting": "[15]; first compound 0.8 µM", "value": 1.04}, {"measurement": "relative viability", "setting": "[15]; first compound 2.53 µM", "value": 1.17}, {"measurement": "relative viability", "setting": "[15]; first compound 8 µM", "value": 1.05}, {"measurement": "relative viability", "setting": "[16]; first compound 0.253 µM", "value": 0.977}, {"measurement": "relative viability", "setting": "[16]; first compound 0.8 µM", "value": 1.01}, {"measurement": "relative viability", "setting": "[16]; first compound 2.53 µM", "value": 1.07}, {"measurement": "relative viability", "setting": "[16]; first compound 8 µM", "value": 1.09}, {"measurement": "relative viability", "setting": "[17]; first compound 0.253 µM", "value": 0.916}, {"measurement": "relative viability", "setting": "[17]; first compound 0.8 µM", "value": 1.04}, {"measurement": "relative viability", "setting": "[17]; first compound 2.53 µM", "value": 0.915}, {"measurement": "relative viability", "setting": "[17]; first compound 8 µM", "value": 0.929}, {"measurement": "relative viability", "setting": "[18]; first compound 0.253 µM", "value": 0.92}, {"measurement": "relative viability", "setting": "[18]; first compound 2.53 µM", "value": 1.05}, {"measurement": "relative viability", "setting": "[18]; first compound 8 µM", "value": 0.96}, {"measurement": "relative viability", "setting": "[19]; first compound 0.253 µM", "value": 0.881}, {"measurement": "relative viability", "setting": "[19]; first compound 0.8 µM", "value": 1.05}, {"measurement": "relative viability", "setting": "[19]; first compound 2.53 µM", "value": 0.956}, {"measurement": "relative viability", "setting": "[19]; first compound 8 µM", "value": 0.364}, {"measurement": "relative viability", "setting": "[20]; first compound 0.253 µM", "value": 1.11}, {"measurement": "relative viability", "setting": "[20]; first compound 0.8 µM", "value": 0.965}, {"measurement": "relative viability", "setting": "[20]; first compound 2.53 µM", "value": 1.15}, {"measurement": "relative viability", "setting": "[20]; first compound 8 µM", "value": 1.2}, {"measurement": "relative viability", "setting": "[21]; first compound 0.253 µM", "value": 1.04}, {"measurement": "relative viability", "setting": "[21]; first compound 0.8 µM", "value": 1.11}, {"measurement": "relative viability", "setting": "[21]; first compound 2.53 µM", "value": 0.929}, {"measurement": "relative viability", "setting": "[21]; first compound 8 µM", "value": 1.07}, {"measurement": "relative viability", "setting": "[22]; first compound 0.253 µM", "value": 1.02}, {"measurement": "relative viability", "setting": "[22]; first compound 0.8 µM", "value": 1.07}, {"measurement": "relative viability", "setting": "[22]; first compound 2.53 µM", "value": 1.06}, {"measurement": "relative viability", "setting": "[22]; first compound 8 µM", "value": 0.953}, {"measurement": "relative viability", "setting": "[23]; first compound 0.253 µM", "value": 0.837}, {"measurement": "relative viability", "setting": "[23]; first compound 0.8 µM", "value": 0.963}, {"measurement": "relative viability", "setting": "[23]; first compound 2.53 µM", "value": 0.914}, {"measurement": "relative viability", "setting": "[23]; first compound 8 µM", "value": 0.804}, {"measurement": "relative viability", "setting": "[24]; first compound 0.253 µM", "value": 0.958}, {"measurement": "relative viability", "setting": "[24]; first compound 0.8 µM", "value": 1.09}, {"measurement": "relative viability", "setting": "[24]; first compound 2.53 µM", "value": 1.11}, {"measurement": "relative viability", "setting": "[24]; first compound 8 µM", "value": 0.822}]}
